Test results from publication PMC7948503, “Optimization of a peptide ligand for the adhesion GPCR ADGRG2 provides a potent tool to explore receptor biology” (The Journal of Biological Chemistry, 2020).
Non-standard residues stand in square brackets, D forms with d. Residues, ends and D or L forms follow the SMILES beside them. Primed or numbered codes have the meaning given here. No end group written: not given here. Phe(4-Me) = Cc1ccc(C[C@H](N)C(=O)O)cc1; FITC′ = not defined here

Assays:
ADGRG2-ΔGPS-β F764A = target: T1, ADGRG2-ΔGPS-β F764A (Mus musculus, UniProt Q8CJ12, F778A); assay: GloSensor cAMP assay; format: cell-based; details: mutant F764A; HEK293, cAMP Glosensor
T1 construct: expressed in transfected cells; host or cells: HEK293
T1 sequence (Q8CJ12 614-1009 F778A): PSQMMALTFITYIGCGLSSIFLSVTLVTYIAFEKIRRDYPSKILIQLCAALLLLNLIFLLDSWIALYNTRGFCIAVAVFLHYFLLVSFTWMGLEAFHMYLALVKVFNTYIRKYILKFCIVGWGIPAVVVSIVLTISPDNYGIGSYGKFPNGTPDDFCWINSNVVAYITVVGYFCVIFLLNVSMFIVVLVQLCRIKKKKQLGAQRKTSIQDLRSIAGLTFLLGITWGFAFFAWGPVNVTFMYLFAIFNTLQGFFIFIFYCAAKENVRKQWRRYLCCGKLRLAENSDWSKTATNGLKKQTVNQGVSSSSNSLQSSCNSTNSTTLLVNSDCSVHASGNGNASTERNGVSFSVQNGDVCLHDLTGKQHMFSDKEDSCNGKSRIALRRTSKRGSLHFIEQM
Description: (§1) Wildtype ADGRG2 full-length (ADGRG2-FL) was cloned from mouse total cDNA libraries using the following primers: forward, […]; reverse, […], and then ADGRG2-FL, ADGRG2 C-terminal truncation mutant (ADGRG2-β), and ADGRG2-ΔGPS-β (the entire ECD of ADGRG2 was deleted) were subcloned into the pcDNA3.1 expression vector. The ADGRG2-ΔGPS-β mutants (T610A, Y611A, C614A, S661A, W662A, I663A, L665A, Y666A，N667A, F671A, L679A, L683A, I730A, V731A, F741A, F747A, W757A, I758A, N759A, S760A, V762A, F764A, Y765A, V768A, V769A, F772A, V774A, W824A, F826A, F828A, F829A, V834A, V836A, F838A, M839A, I844A, F845A) were generated using a QuikChange Mutagenesis Kit (Stratagene). All mutations were verified by DNA sequencing.
(§2) The Glosensor cAMP assay was performed as described ([6], [39], [40]). HEK293 cells were transfected with the GloSensor plasmid and the desired expression plasmids in 24-well dishes. Twenty-four hours after transfection, the cells were plated on 96-well plates at a cell density of 20,000 cells/well. The cells were maintained in Dulbecco’s modified Eagle’s medium for another 24 h, washed with PBS, and then incubated with 100 μl of solution containing 10% fetal bovine serum, 2% (v/v) GloSensor cAMP reagent, and 88% CO2-independent medium in each well for 2 h. The cAMP signal was examined using a luminescence counter (Mithras LB 940).

ADGRG2-ΔGPS-β C614A = target: T2, ADGRG2-ΔGPS-β C614A (Mus musculus, UniProt Q8CJ12, C628A); assay: GloSensor cAMP assay; format: cell-based; details: mutant C614A; HEK293, cAMP Glosensor
T2 construct: expressed in transfected cells; host or cells: HEK293
T2 sequence (Q8CJ12 614-1009 C628A): as the sequence (Q8CJ12 614-1009 F778A) above, with C15A, A165F counted along it
Description: as §1, §2

ADGRG2-ΔGPS-β I741A = target: T3, ADGRG2-ΔGPS-β I741A (Mus musculus, UniProt Q8CJ12, I755A); assay: GloSensor cAMP assay; format: cell-based; details: mutant I741A; HEK293, cAMP Glosensor
T3 construct: expressed in transfected cells; host or cells: HEK293
T3 sequence (Q8CJ12 614-1009 I755A): as the sequence (Q8CJ12 614-1009 F778A) above, with I142A, A165F counted along it
Description: as §1, §2

ADGRG2-ΔGPS-β I844A = target: T4, ADGRG2-ΔGPS-β I844A (Mus musculus, UniProt Q8CJ12, I858A); assay: GloSensor cAMP assay; format: cell-based; details: mutant I844A; HEK293, cAMP Glosensor
T4 construct: expressed in transfected cells; host or cells: HEK293
T4 sequence (Q8CJ12 614-1009 I858A): as the sequence (Q8CJ12 614-1009 F778A) above, with A165F, I245A counted along it
Description: as §1, §2

ADGRG2-ΔGPS-β F828A = target: T5, ADGRG2-ΔGPS-β F828A (Mus musculus, UniProt Q8CJ12, F842A); assay: GloSensor cAMP assay; format: cell-based; details: mutant F828A; HEK293, cAMP Glosensor
T5 construct: expressed in transfected cells; host or cells: HEK293
T5 sequence (Q8CJ12 614-1009 F842A): as the sequence (Q8CJ12 614-1009 F778A) above, with A165F, F229A counted along it
Description: as §1, §2

ADGRG2-ΔGPS-β W662A = target: T6, ADGRG2-ΔGPS-β W662A (Mus musculus, UniProt Q8CJ12, W676A); assay: GloSensor cAMP assay; format: cell-based; details: mutant W662A; HEK293, cAMP Glosensor
T6 construct: expressed in transfected cells; host or cells: HEK293
T6 sequence (Q8CJ12 614-1009 W676A): as the sequence (Q8CJ12 614-1009 F778A) above, with W63A, A165F counted along it
Description: as §1, §2

ADGRG2-ΔGPS-β V762A = target: T7, ADGRG2-ΔGPS-β V762A (Mus musculus, UniProt Q8CJ12, V776A); assay: GloSensor cAMP assay; format: cell-based; details: mutant V762A; HEK293, cAMP Glosensor
T7 construct: expressed in transfected cells; host or cells: HEK293
T7 sequence (Q8CJ12 614-1009 V776A): as the sequence (Q8CJ12 614-1009 F778A) above, with V163A, A165F counted along it
Description: as §1, §2

ADGRG2-ΔGPS-β F826A = target: T8, ADGRG2-ΔGPS-β F826A (Mus musculus, UniProt Q8CJ12, F840A); assay: GloSensor cAMP assay; format: cell-based; details: mutant F826A; HEK293, cAMP Glosensor
T8 construct: expressed in transfected cells; host or cells: HEK293
T8 sequence (Q8CJ12 614-1009 F840A): as the sequence (Q8CJ12 614-1009 F778A) above, with A165F, F227A counted along it
Description: as §1, §2

ADGRG2-ΔGPS-β V834A = target: T9, ADGRG2-ΔGPS-β V834A (Mus musculus, UniProt Q8CJ12, V848A); assay: GloSensor cAMP assay; format: cell-based; details: mutant V834A; HEK293, cAMP Glosensor
T9 construct: expressed in transfected cells; host or cells: HEK293
T9 sequence (Q8CJ12 614-1009 V848A): as the sequence (Q8CJ12 614-1009 F778A) above, with A165F, V235A counted along it
Description: as §1, §2

ADGRG2-ΔGPS-β V774A = target: T10, ADGRG2-ΔGPS-β V774A (Mus musculus, UniProt Q8CJ12, V788A); assay: GloSensor cAMP assay; format: cell-based; details: mutant V774A; HEK293, cAMP Glosensor
T10 construct: expressed in transfected cells; host or cells: HEK293
T10 sequence (Q8CJ12 614-1009 V788A limits assumed): as the sequence (Q8CJ12 614-1009 F778A) above, with A165F, V175A counted along it
Description: as §1, §2

ADGRG2-ΔGPS-β I663A = target: T11, ADGRG2-ΔGPS-β I663A (Mus musculus, UniProt Q8CJ12, I677A); assay: GloSensor cAMP assay; format: cell-based; details: mutant I663A; HEK293, cAMP Glosensor
T11 construct: expressed in transfected cells; host or cells: HEK293
T11 sequence (Q8CJ12 614-1009 I677A): as the sequence (Q8CJ12 614-1009 F778A) above, with I64A, A165F counted along it
Description: as §1, §2

ADGRG2-ΔGPS-β F845A = target: T12, ADGRG2-ΔGPS-β F845A (Mus musculus, UniProt Q8CJ12, F859A); assay: GloSensor cAMP assay; format: cell-based; details: mutant F845A; HEK293, cAMP Glosensor
T12 construct: expressed in transfected cells; host or cells: HEK293
T12 sequence (Q8CJ12 614-1009 F859A limits assumed): as the sequence (Q8CJ12 614-1009 F778A) above, with A165F, F246A counted along it
Description: as §1, §2

ADGRG2-ΔGPS-β W824A = target: T13, ADGRG2-ΔGPS-β W824A (Mus musculus, UniProt Q8CJ12, W838A); assay: GloSensor cAMP assay; format: cell-based; details: mutant W824A; HEK293, cAMP Glosensor
T13 construct: expressed in transfected cells; host or cells: HEK293
T13 sequence (Q8CJ12 614-1009 W838A): as the sequence (Q8CJ12 614-1009 F778A) above, with A165F, W225A counted along it
Description: as §1, §2

ADGRG2-ΔGPS-β F671A = target: T14, ADGRG2-ΔGPS-β F671A (Mus musculus, UniProt Q8CJ12, F685A); assay: GloSensor cAMP assay; format: cell-based; details: mutant F671A; HEK293, cAMP Glosensor
T14 construct: expressed in transfected cells; host or cells: HEK293
T14 sequence (Q8CJ12 614-1009 F685A): as the sequence (Q8CJ12 614-1009 F778A) above, with F72A, A165F counted along it
Description: as §1, §2

ADGRG2-ΔGPS-β F829A = target: T15, ADGRG2-ΔGPS-β F829A (Mus musculus, UniProt Q8CJ12, F843A); assay: GloSensor cAMP assay; format: cell-based; details: mutant F829A; HEK293, cAMP Glosensor
T15 construct: expressed in transfected cells; host or cells: HEK293
T15 sequence (Q8CJ12 614-1009 F843A): as the sequence (Q8CJ12 614-1009 F778A) above, with A165F, F230A counted along it
Description: as §1, §2

ADGRG2-ΔGPS-β L665A = target: T16, ADGRG2-ΔGPS-β L665A (Mus musculus, UniProt Q8CJ12, L679A); assay: GloSensor cAMP assay; format: cell-based; details: mutant L665A; HEK293, cAMP Glosensor
T16 construct: expressed in transfected cells; host or cells: HEK293
T16 sequence (Q8CJ12 614-1009 L679A): as the sequence (Q8CJ12 614-1009 F778A) above, with L66A, A165F counted along it
Description: as §1, §2

ADGRG2-ΔGPS-β F772A = target: T17, ADGRG2-ΔGPS-β F772A (Mus musculus, UniProt Q8CJ12, F786A); assay: GloSensor cAMP assay; format: cell-based; details: mutant F772A; HEK293, cAMP Glosensor
T17 construct: expressed in transfected cells; host or cells: HEK293
T17 sequence (Q8CJ12 614-1009 F786A): as the sequence (Q8CJ12 614-1009 F778A) above, with A165F, F173A counted along it
Description: as §1, §2

Rluc-ADGRG2-ΔGPS-β L683A = target: T18, Rluc-ADGRG2-ΔGPS-β L683A (mouse, UniProt Q8CJ12-3 38-995, L683A); assay: FRET or BRET; HEK293 cells transfected with Rluc-ADGRG2-ΔGPS-β WT or mutants, stimulated by increasing concentrations of FITC-conjugated VPM-p15; saturation curves fitted with GraphPad; each experiment repeated 6 times; details: one partner purified
T18 construct: ADGRG2 (GPR64), mouse, ADGRG2-ΔGPS-β: the entire ECD removed; source: HEK293, transfected, on cells; not shown: Rluc, N-terminal, kept
T18 sequence (Q8CJ12 other isoform, or with tags, fused parts or gaps L683A | L683A | L683A L683A): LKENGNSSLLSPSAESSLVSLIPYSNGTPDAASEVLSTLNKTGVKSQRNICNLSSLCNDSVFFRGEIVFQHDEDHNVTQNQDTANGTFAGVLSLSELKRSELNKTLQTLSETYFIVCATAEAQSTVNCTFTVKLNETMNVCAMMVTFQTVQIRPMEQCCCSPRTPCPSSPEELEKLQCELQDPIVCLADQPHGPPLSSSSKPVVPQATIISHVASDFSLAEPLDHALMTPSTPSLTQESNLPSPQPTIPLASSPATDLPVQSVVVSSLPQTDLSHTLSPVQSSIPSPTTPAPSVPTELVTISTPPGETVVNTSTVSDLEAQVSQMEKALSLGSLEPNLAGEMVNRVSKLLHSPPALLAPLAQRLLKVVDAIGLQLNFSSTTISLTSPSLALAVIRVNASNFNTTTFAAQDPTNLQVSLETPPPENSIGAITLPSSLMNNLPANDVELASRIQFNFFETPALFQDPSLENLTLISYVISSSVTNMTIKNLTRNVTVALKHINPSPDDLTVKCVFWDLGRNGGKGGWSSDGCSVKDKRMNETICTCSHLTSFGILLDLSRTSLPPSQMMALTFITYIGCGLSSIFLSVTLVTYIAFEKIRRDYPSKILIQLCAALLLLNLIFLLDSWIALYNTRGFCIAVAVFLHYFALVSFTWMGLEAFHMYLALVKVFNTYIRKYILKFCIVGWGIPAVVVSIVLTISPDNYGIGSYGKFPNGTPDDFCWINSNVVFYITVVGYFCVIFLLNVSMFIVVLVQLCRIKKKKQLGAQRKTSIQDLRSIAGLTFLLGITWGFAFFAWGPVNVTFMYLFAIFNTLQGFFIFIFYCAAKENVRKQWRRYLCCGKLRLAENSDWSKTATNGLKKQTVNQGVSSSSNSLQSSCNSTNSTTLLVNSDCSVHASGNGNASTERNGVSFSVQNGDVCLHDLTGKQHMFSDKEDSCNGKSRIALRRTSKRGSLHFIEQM

| Molecule | EC50 (ADGRG2-ΔGPS-β F764A) [µM] | EC50 (ADGRG2-ΔGPS-β C614A) [µM] | EC50 (ADGRG2-ΔGPS-β I741A) [µM] | EC50 (ADGRG2-ΔGPS-β I844A) [µM] | EC50 (ADGRG2-ΔGPS-β F828A) [µM] | EC50 (ADGRG2-ΔGPS-β W662A) [µM] | EC50 (ADGRG2-ΔGPS-β V762A) [µM] | EC50 (ADGRG2-ΔGPS-β F826A) [µM] | EC50 (ADGRG2-ΔGPS-β V834A) [µM] | EC50 (ADGRG2-ΔGPS-β V774A) [µM] | EC50 (ADGRG2-ΔGPS-β I663A) [µM] | EC50 (ADGRG2-ΔGPS-β F845A) [µM] | EC50 (ADGRG2-ΔGPS-β W824A) [µM] | EC50 (ADGRG2-ΔGPS-β F671A) [µM] | EC50 (ADGRG2-ΔGPS-β F829A) [µM] | EC50 (ADGRG2-ΔGPS-β L665A) [µM] | EC50 (ADGRG2-ΔGPS-β F772A) [µM] | EC50 (Rluc-ADGRG2-ΔGPS-β L683A) [µM] |
| --- | --- | --- | --- | --- | --- | --- | --- | --- | --- | --- | --- | --- | --- | --- | --- | --- | --- | --- |
| CC[C@H](C)[C@H](NC(=O)CNC(=O)[C@H](Cc1ccc(C)cc1)NC(=O)[C@H](CO)NC(=O)[C@@H](N)C(C)C)C(=O)N[C@@H](CC(C)C)C(=O)N[C@@H](CC(C)C)C(=O)N[C@@H](CC(=O)O)C(=O)N[C@@H](CC(C)C)C(=O)N[C@@H](CO)C(=O)N[C@@H](CCCNC(=N)N)C(=O)N[C@H](C(=O)N[C@@H](CO)C(=O)N[C@@H](CC(C)C)C(=O)N1CCC[C@H]1C(=O)O)[C@@H](C)O [VPM-p15] (H-VS[Phe(4-Me)]GILLDLSRTSLP-OH) | 0.938 | 2.17 | 1.55 | 12.9 | 3.88 | 1.55 | 2.35 | 6.6 | 1.14 | 1.28 | 1.2 | 3.21 | 9.75 | 1.2 | 1.16 | 1.59 | 2.19 |  |
| VS[Phe(4-Me)]GILLDLSRTSLP-{FITC′} [FITC-conjugated VPM-p15 (ADGRG2 Stachel peptide p15 T1V/F3Phe(4-Me))] |  |  |  |  |  |  |  |  |  |  |  |  |  |  |  |  |  | 1.16 |
